Measured values published in patent publication US4749717A, “Dopamine-beta-hydroxylase inhibitors” (SmithKline Beckman Corporation, priority 1987, dated 1988).

Assays:
[1] = molecular target: T1, DBH (dopamine-β-hydroxylase) (Bos taurus, UniProt P15101); test: in vitro DBH inhibition (conversion of tyramine to octopamine; spectrophotometric absorbance at 330 nm); format: biochemical; conditions: concentration of compound at which DBH activity was halved
T1 sequence (P15101 1-610): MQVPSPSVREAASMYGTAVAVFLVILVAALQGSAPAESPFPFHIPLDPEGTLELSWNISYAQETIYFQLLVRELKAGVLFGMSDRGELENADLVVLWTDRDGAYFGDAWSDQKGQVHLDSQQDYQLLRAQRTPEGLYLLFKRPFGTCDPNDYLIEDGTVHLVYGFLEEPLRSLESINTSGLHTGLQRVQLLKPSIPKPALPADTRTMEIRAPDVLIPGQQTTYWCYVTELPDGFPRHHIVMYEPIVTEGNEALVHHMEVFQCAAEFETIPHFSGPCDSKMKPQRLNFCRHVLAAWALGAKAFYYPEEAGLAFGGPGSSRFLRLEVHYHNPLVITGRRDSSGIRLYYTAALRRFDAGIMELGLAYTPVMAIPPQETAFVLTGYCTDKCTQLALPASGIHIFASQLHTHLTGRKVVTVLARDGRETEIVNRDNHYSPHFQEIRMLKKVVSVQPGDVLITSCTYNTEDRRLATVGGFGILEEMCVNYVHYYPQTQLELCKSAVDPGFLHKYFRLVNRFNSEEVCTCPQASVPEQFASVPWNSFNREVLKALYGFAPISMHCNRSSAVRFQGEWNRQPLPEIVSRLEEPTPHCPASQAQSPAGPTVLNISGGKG
Description: Listed in Table I are the compounds of the invention that were tested for in vitro DBH inhibition by a standard procedure for assaying conversion of tyramine to octopamine in the presence of DBH. J. J. Pisano, et al., Biochim. Biophys. Acta, 43, 566-568 (1960). Octopamine was assayed following sodium periodate oxidation to p-hydroxybenzaldehyde by measuring spectrophotometric absorbance at 330 nm.

[2] = system: spontaneously hypertensive rats; test: mean arterial blood pressure in spontaneously hypertensive rats; format: in vivo, rat; conditions: 50 mg/kg intraperitoneally
Description: Further, spontaneously hypertensive rats were treated with a suspension or solution of 1-(2-thienylmethyl)imidazole-2-thiol at a dose of 50 mg/kg intraperitoneally, and mean arterial blood pressure was monitored for 260 minutes using indwelling cannulae in the tail arteries. […] The maximal blood pressure reduction was approximately 25 to 30 mmHg.

[3] = molecular target: T2, DBH (dopamine-β-hydroxylase) (Homo sapiens, UniProt P09172); conditions: literature; cited from earlier work
T2 sequence (P09172 1-617): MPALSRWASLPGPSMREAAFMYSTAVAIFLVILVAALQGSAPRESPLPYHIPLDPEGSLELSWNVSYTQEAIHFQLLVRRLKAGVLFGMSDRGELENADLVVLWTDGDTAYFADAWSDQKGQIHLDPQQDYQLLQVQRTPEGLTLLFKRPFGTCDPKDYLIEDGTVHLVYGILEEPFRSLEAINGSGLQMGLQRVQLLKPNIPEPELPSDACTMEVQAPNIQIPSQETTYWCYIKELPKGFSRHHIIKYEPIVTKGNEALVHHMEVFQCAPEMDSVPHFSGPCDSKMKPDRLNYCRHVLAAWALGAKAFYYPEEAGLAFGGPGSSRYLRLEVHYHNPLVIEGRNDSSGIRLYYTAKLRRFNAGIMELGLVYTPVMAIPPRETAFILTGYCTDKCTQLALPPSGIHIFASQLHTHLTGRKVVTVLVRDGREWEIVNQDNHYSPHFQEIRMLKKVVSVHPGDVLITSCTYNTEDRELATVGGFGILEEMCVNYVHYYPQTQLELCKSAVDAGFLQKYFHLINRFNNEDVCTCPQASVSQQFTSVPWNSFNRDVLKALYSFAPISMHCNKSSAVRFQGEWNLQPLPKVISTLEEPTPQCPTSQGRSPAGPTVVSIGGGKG

[4] = Ehrreich et al.; cited from earlier work
[5] = Teresawa et al.; cited from earlier work

SMILES | DBH inhibition (in words) [3] | other results
Sc1nccn1Cc1cccs1 [1-(2-thienylmethyl)imidazole-2-thiol, 1-(2-Thienylmethyl)Imidazole-2-Thiol] |  | IC50 [1]: 13 µM; time after treatment to significant blood pressure reductions [2]: ≤ 60 min; maximal blood pressure reduction ([2]; mean arterial blood pressure, approximately): 25 to 30 mmHg; blood pressure reduction compared to vehicle-treated controls ([2]; monitored for 260 minutes): significant blood pressure reductions
Sc1nccn1Cc1ccsc1 [1-(3-thienylmethyl)imidazole-2-thiol, 1-(3-Thienylmethyl)imidazole-2-thiol] |  | IC50 [1]: 7.4 µM
NCC=Cc1cccs1 [3-(2-thienyl)allylamine] | potent, time-dependent DBH inhibitors | 
O=C(O)c1ccc(CCC(Br)CBr)cn1 (centres unmarked) [5-(3,4-dibromobutyl)picolinic acid] | DBH inhibitors | 
O=C(O)c1ccc(CCCCCl)cn1 [5-(4-chlorobutyl) picolinic acid] | inhibit DBH | 
CN(C)C(=S)SCc1ccc(C(=O)O)nc1 [5-(dimethyldithiocarbamoylmethyl)picolinic acid] | DBH inhibitors | 
NOCc1ccccc1 [Benzyloxyamine, benzyloxyamine] | apparently act as competitive inhibitors | 
CCCCc1ccc(C(N)=O)nc1 [Bupicomide, 5-(n-butyl)picolinamine] | DBH inhibitor | antihypertensive activity (in words) [4]: has antihypertensive activity
NNCc1ccccc1 [benzylhydrazine] | apparently act as competitive inhibitors | 
CCCCc1ccc(C(=O)O)nc1 [fusaric acid] |  | hepatotoxicity (in words) [5]: hepatotoxic
